Consider five molecules from the supplement of paper PMC10307832.

The subject of the first experiment is NCI-H2023. The experiment in a line: relative viability (nuclei count vs DMSO), 5 days (fraction); higher = more cells survive. The settings on record: first compound 8 µM. In a few lines:
(§1)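 Relative viability divides the nuclei count in treated wells by that in vehicle wells. Lung cancer cell lines were seeded in 1536-well plates, dosed by pin tool the next day, and fixed and stained after 5 days in one step with final 0.05% Triton X-100, 1% formaldehyde and 1 ug/ml Hoechst. Dosing was a single drug or a fixed anchor-drug dose plus five library-drug doses (not always all listed) in √10 steps, and values are medians of duplicate plates imaged at 4×.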
The molecule `Nc1cccc2c1CN(C1CCC(=O)NC1=O)C2=O` (stereo not given) [Lenalidomide] + CCNC(=O)c1noc(-c2cc(C(C)C)c(O)cc2O)c1-c1ccc(CN2CCOCC2)cc1 [Luminespib] (partner 0.01 µM) returned a relative viability of 0.824.

Consider `Nc1cccc2c1CN(C1CCC(=O)NC1=O)C2=O` (stereo not given) [Lenalidomide] + Nc1ncn([C@H]2C[C@H](O)[C@@H](CO)O2)c(=O)n1 [Decitabine] (partner 2 µM), for which the relative viability is 0.231.

Take `Nc1cccc2c1CN(C1CCC(=O)NC1=O)C2=O` (stereo not given) [Lenalidomide] + Cc1nc(Nc2ncc(C(=O)Nc3c(C)cccc3Cl)s2)cc(N2CCN(CCO)CC2)n1 [Dasatinib] (partner 0.075 µM): the relative viability was determined as 0.416.

In turn, `Nc1cccc2c1CN(C1CCC(=O)NC1=O)C2=O` (stereo not given) [Lenalidomide] + N=C(N)NC(=N)NCCc1ccccc1 [Phenformin] (partner 250 µM) yielded a relative viability of 0.407.

As to `Nc1cccc2c1CN(C1CCC(=O)NC1=O)C2=O` (stereo not given) [Lenalidomide] + CC(=O)c1c(C)c2cnc(Nc3ccc(N4CCNCC4)cn3)nc2n(C2CCCC2)c1=O [Palbociclib] (partner 0.5 µM), the relative viability was 0.45.

The subject of the next experiment is UMC-11. The experiment is described as above. The settings on record: first compound 0.253 µM. In outline:
as §1
`Nc1cccc2c1CN(C1CCC(=O)NC1=O)C2=O` (stereo not given) [Lenalidomide] + CCNC(=O)c1noc(-c2cc(C(C)C)c(O)cc2O)c1-c1ccc(CN2CCOCC2)cc1 [Luminespib] (partner 0.01 µM) registered a relative viability of 1.02.

As to `Nc1cccc2c1CN(C1CCC(=O)NC1=O)C2=O` (stereo not given) [Lenalidomide] + Nc1ncn([C@H]2C[C@H](O)[C@@H](CO)O2)c(=O)n1 [Decitabine] (partner 2 µM), the relative viability came to 0.46.

The molecule `Nc1cccc2c1CN(C1CCC(=O)NC1=O)C2=O` (stereo not given) [Lenalidomide] + Cc1nc(Nc2ncc(C(=O)Nc3c(C)cccc3Cl)s2)cc(N2CCN(CCO)CC2)n1 [Dasatinib] (partner 0.075 µM) yielded a relative viability of 0.452.

For the molecule `Nc1cccc2c1CN(C1CCC(=O)NC1=O)C2=O` (stereo not given) [Lenalidomide] + N=C(N)NC(=N)NCCc1ccccc1 [Phenformin] (partner 250 µM), the relative viability came to 0.317.

Take `Nc1cccc2c1CN(C1CCC(=O)NC1=O)C2=O` (stereo not given) [Lenalidomide] + CC(=O)c1c(C)c2cnc(Nc3ccc(N4CCNCC4)cn3)nc2n(C2CCCC2)c1=O [Palbociclib] (partner 0.5 µM): the relative viability was determined as 0.328.

The experiment is the same for the next values; noted with them: first compound 0.8 µM.
Regarding `Nc1cccc2c1CN(C1CCC(=O)NC1=O)C2=O` (stereo not given) [Lenalidomide] + CCNC(=O)c1noc(-c2cc(C(C)C)c(O)cc2O)c1-c1ccc(CN2CCOCC2)cc1 [Luminespib] (partner 0.01 µM), the relative viability was 1.03.

Molecule `Nc1cccc2c1CN(C1CCC(=O)NC1=O)C2=O` (stereo not given) [Lenalidomide] + Nc1ncn([C@H]2C[C@H](O)[C@@H](CO)O2)c(=O)n1 [Decitabine] (partner 2 µM) displayed a relative viability of 0.688.

Molecule `Nc1cccc2c1CN(C1CCC(=O)NC1=O)C2=O` (stereo not given) [Lenalidomide] + Cc1nc(Nc2ncc(C(=O)Nc3c(C)cccc3Cl)s2)cc(N2CCN(CCO)CC2)n1 [Dasatinib] (partner 0.075 µM) returned a relative viability of 0.456.

For `Nc1cccc2c1CN(C1CCC(=O)NC1=O)C2=O` (stereo not given) [Lenalidomide] + N=C(N)NC(=N)NCCc1ccccc1 [Phenformin] (partner 250 µM), the relative viability turned out to be 0.328.

Molecule `Nc1cccc2c1CN(C1CCC(=O)NC1=O)C2=O` (stereo not given) [Lenalidomide] + CC(=O)c1c(C)c2cnc(Nc3ccc(N4CCNCC4)cn3)nc2n(C2CCCC2)c1=O [Palbociclib] (partner 0.5 µM) yielded a relative viability of 0.363.

The experiment is the same for the next values; noted with them: first compound 2.53 µM.
`Nc1cccc2c1CN(C1CCC(=O)NC1=O)C2=O` (stereo not given) [Lenalidomide] + CCNC(=O)c1noc(-c2cc(C(C)C)c(O)cc2O)c1-c1ccc(CN2CCOCC2)cc1 [Luminespib] (partner 0.01 µM): the relative viability was found to be 1.04.

On to `Nc1cccc2c1CN(C1CCC(=O)NC1=O)C2=O` (stereo not given) [Lenalidomide] + Nc1ncn([C@H]2C[C@H](O)[C@@H](CO)O2)c(=O)n1 [Decitabine] (partner 2 µM), for which the relative viability came out at 0.725.

Regarding `Nc1cccc2c1CN(C1CCC(=O)NC1=O)C2=O` (stereo not given) [Lenalidomide] + Cc1nc(Nc2ncc(C(=O)Nc3c(C)cccc3Cl)s2)cc(N2CCN(CCO)CC2)n1 [Dasatinib] (partner 0.075 µM), the relative viability stood at 0.542.

Take `Nc1cccc2c1CN(C1CCC(=O)NC1=O)C2=O` (stereo not given) [Lenalidomide] + N=C(N)NC(=N)NCCc1ccccc1 [Phenformin] (partner 250 µM): the relative viability was found to be 0.389.

`Nc1cccc2c1CN(C1CCC(=O)NC1=O)C2=O` (stereo not given) [Lenalidomide] + CC(=O)c1c(C)c2cnc(Nc3ccc(N4CCNCC4)cn3)nc2n(C2CCCC2)c1=O [Palbociclib] (partner 0.5 µM): the relative viability came to 0.308.

The experiment is the same for the next values; noted with them: first compound 8 µM.
For `Nc1cccc2c1CN(C1CCC(=O)NC1=O)C2=O` (stereo not given) [Lenalidomide] + CCNC(=O)c1noc(-c2cc(C(C)C)c(O)cc2O)c1-c1ccc(CN2CCOCC2)cc1 [Luminespib] (partner 0.01 µM), the relative viability is 0.953.

`Nc1cccc2c1CN(C1CCC(=O)NC1=O)C2=O` (stereo not given) [Lenalidomide] + Nc1ncn([C@H]2C[C@H](O)[C@@H](CO)O2)c(=O)n1 [Decitabine] (partner 2 µM) had a relative viability of 0.621.

For `Nc1cccc2c1CN(C1CCC(=O)NC1=O)C2=O` (stereo not given) [Lenalidomide] + Cc1nc(Nc2ncc(C(=O)Nc3c(C)cccc3Cl)s2)cc(N2CCN(CCO)CC2)n1 [Dasatinib] (partner 0.075 µM), the relative viability came to 0.43.

In the case of `Nc1cccc2c1CN(C1CCC(=O)NC1=O)C2=O` (stereo not given) [Lenalidomide] + N=C(N)NC(=N)NCCc1ccccc1 [Phenformin] (partner 250 µM), the relative viability is 0.339.

The molecule `Nc1cccc2c1CN(C1CCC(=O)NC1=O)C2=O` (stereo not given) [Lenalidomide] + CC(=O)c1c(C)c2cnc(Nc3ccc(N4CCNCC4)cn3)nc2n(C2CCCC2)c1=O [Palbociclib] (partner 0.5 µM) returned a relative viability of 0.285.

For the next experiment, the system named is NCI-H2087. Described as above. The settings on record: first compound 0.253 µM. In a few lines:
as §1
`Nc1cccc2c1CN(C1CCC(=O)NC1=O)C2=O` (stereo not given) [Lenalidomide] + CCNC(=O)c1noc(-c2cc(C(C)C)c(O)cc2O)c1-c1ccc(CN2CCOCC2)cc1 [Luminespib] (partner 0.01 µM) returned a relative viability of 0.233.

`Nc1cccc2c1CN(C1CCC(=O)NC1=O)C2=O` (stereo not given) [Lenalidomide] + Nc1ncn([C@H]2C[C@H](O)[C@@H](CO)O2)c(=O)n1 [Decitabine] (partner 2 µM) displayed a relative viability of 0.31.

`Nc1cccc2c1CN(C1CCC(=O)NC1=O)C2=O` (stereo not given) [Lenalidomide] + Cc1nc(Nc2ncc(C(=O)Nc3c(C)cccc3Cl)s2)cc(N2CCN(CCO)CC2)n1 [Dasatinib] (partner 0.075 µM): the relative viability worked out at 0.865.

`Nc1cccc2c1CN(C1CCC(=O)NC1=O)C2=O` (stereo not given) [Lenalidomide] + N=C(N)NC(=N)NCCc1ccccc1 [Phenformin] (partner 250 µM): the relative viability was determined as 0.416.

Turning to `Nc1cccc2c1CN(C1CCC(=O)NC1=O)C2=O` (stereo not given) [Lenalidomide] + CC(=O)c1c(C)c2cnc(Nc3ccc(N4CCNCC4)cn3)nc2n(C2CCCC2)c1=O [Palbociclib] (partner 0.5 µM), the relative viability came to 0.248.
